Laboratory results published in US8372654B2, “Method for investigating the fate of a test compound or the stateof a biological system by means of NMR of hyperpolarised NMR active nuclei” (GE Healthcare Limited, priority 2001, dated 2013).

Tests used:
[1] = rat, in vivo, iv, 20 mg/kg
Procedure: (U-^13C)Paracetamol was administered intravenously at 20 mg/kg (at 0 and 3 hrs) to 4 anaesthetised rats, urine was collected from canulated urethra and bile was collected from canulated bile duct (2 rats only) at 0-3 and 3-6 hours. Bile (3-6 hrs) was extracted with dichloromethane and then fractionated by RP-hplc (C18 Kromasil, 25×1 cm, 5 um) using gradient elution with formic acid in water and formic acid in methanol).
Several metabolites were collected. […] The isolated material was then dried and an aliquot re-analysed by RP hplc indicating a peak purity of 96.7%, monitored by on-line UV detection (at 254 nm) and gave the expected (M+H)+ ion at 240 mass units by on-line electrospray ionisation mass spectrometry (EI-MS).

[2] = benzoic acid metabolism study: iv administration to anaesthetised rats, urine collected; type: in vivo, rat

(U-^13C)Paracetamol
metabolite identified in bile [1]: Paracetamol sulphate

(^13C-carboxyl) hippuric acid
level measured in urine ([2]; rat urine, 0-2 hr collection, after iv (13C-carboxyl) benzoic acid 10 mg/Kg): approximately 5 mg/ml

O=[13C](O)c1ccccc1 [(^13C-carboxyl) Benzoic acid]
major metabolite in urine ([2]; rat urine after iv 10 mg/Kg at 0 and 2 hrs, isolated by SPE and RP-hplc): (^13C-carboxy) hippuric acid
